Results as given in patent US20050282743A1, “Molecular interactions in cells” (Arbor Vita Corporation, priority 2001, published 2005).
Peptide text beside a SMILES is read from it. * marks the point of attachment. Biotin = O=C1N[C@H]2[C@H](CS[C@H]2CCCCC(=O)*)N1

How the values were obtained:
Experiment in all cases: G' assay (10 uM PL peptide), results of TABLE 7 and TABLE 12
Format in all cases: binding
[1] = target: T1, PDZ protein (GST-PDZ fusion) (Homo sapiens, UniProt Q07157); settings: PDZ ZO-1, PDZ Domain 1
T1 construct: made in house; host or cells: E. coli (DH5alpha, BL21 or JM109)
T1 sequence (Q07157 whole entry, the tested form may be a part): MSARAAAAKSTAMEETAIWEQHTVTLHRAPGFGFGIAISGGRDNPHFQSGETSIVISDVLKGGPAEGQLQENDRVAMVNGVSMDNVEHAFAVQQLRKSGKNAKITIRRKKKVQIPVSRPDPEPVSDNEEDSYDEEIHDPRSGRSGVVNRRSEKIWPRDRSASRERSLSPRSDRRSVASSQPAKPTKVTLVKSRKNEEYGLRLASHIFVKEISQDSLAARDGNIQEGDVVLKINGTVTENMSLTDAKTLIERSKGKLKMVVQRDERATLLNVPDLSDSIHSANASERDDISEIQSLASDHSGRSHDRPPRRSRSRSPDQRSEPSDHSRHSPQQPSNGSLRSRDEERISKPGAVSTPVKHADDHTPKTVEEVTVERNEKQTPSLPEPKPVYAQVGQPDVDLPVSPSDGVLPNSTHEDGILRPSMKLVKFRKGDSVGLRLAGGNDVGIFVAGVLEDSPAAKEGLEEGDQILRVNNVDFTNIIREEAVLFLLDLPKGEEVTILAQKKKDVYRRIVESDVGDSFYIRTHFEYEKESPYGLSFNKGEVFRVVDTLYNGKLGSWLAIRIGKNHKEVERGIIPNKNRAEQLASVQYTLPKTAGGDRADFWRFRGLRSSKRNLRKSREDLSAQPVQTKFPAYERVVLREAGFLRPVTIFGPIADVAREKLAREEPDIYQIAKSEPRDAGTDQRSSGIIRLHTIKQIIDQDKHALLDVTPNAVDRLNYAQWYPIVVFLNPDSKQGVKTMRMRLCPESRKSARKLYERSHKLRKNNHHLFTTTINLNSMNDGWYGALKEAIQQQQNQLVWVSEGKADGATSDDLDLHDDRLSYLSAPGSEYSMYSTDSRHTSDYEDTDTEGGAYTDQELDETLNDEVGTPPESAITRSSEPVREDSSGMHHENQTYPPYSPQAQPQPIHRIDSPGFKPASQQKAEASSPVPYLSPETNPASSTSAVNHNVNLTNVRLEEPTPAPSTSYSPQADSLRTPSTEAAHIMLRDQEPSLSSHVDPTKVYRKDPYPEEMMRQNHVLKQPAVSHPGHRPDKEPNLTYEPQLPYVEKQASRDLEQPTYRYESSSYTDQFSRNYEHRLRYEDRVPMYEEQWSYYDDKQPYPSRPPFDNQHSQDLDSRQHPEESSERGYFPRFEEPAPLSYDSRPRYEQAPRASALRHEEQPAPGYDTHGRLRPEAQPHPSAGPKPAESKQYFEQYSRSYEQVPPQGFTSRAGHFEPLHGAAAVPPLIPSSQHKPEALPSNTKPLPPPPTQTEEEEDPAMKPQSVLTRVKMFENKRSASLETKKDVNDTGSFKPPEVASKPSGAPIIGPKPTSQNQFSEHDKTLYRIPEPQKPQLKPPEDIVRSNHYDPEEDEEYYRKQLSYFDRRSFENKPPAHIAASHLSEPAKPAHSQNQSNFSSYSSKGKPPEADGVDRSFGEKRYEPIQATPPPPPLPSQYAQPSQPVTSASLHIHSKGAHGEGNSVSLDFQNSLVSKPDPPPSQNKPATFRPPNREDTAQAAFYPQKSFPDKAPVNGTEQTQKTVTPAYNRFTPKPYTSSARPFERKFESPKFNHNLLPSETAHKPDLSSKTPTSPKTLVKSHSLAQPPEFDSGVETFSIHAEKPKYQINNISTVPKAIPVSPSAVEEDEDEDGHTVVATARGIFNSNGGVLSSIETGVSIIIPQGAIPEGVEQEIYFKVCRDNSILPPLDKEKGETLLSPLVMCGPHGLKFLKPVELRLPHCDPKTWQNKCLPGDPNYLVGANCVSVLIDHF
Procedure, shortened: (§1)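 Biotin-PL peptide (N-term label), 10 uM vs GST-PDZ; protein 5 ug/ml by default. A450 nm binned: 1 = 0-1, 2 = 1-2, 3 = 2-3, 4 = 3-4, 5 = >4 on >2 repeats, 0 = no binding.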

[2] = target: T2, PDZ protein (GST-PDZ fusion) (Homo sapiens, UniProt O15085); settings: PDZ KIAA0380, PDZ Domain 1
T2 construct: made in house; host or cells: E. coli (DH5alpha, BL21 or JM109)
T2 sequence (O15085 whole entry, the tested form may be a part): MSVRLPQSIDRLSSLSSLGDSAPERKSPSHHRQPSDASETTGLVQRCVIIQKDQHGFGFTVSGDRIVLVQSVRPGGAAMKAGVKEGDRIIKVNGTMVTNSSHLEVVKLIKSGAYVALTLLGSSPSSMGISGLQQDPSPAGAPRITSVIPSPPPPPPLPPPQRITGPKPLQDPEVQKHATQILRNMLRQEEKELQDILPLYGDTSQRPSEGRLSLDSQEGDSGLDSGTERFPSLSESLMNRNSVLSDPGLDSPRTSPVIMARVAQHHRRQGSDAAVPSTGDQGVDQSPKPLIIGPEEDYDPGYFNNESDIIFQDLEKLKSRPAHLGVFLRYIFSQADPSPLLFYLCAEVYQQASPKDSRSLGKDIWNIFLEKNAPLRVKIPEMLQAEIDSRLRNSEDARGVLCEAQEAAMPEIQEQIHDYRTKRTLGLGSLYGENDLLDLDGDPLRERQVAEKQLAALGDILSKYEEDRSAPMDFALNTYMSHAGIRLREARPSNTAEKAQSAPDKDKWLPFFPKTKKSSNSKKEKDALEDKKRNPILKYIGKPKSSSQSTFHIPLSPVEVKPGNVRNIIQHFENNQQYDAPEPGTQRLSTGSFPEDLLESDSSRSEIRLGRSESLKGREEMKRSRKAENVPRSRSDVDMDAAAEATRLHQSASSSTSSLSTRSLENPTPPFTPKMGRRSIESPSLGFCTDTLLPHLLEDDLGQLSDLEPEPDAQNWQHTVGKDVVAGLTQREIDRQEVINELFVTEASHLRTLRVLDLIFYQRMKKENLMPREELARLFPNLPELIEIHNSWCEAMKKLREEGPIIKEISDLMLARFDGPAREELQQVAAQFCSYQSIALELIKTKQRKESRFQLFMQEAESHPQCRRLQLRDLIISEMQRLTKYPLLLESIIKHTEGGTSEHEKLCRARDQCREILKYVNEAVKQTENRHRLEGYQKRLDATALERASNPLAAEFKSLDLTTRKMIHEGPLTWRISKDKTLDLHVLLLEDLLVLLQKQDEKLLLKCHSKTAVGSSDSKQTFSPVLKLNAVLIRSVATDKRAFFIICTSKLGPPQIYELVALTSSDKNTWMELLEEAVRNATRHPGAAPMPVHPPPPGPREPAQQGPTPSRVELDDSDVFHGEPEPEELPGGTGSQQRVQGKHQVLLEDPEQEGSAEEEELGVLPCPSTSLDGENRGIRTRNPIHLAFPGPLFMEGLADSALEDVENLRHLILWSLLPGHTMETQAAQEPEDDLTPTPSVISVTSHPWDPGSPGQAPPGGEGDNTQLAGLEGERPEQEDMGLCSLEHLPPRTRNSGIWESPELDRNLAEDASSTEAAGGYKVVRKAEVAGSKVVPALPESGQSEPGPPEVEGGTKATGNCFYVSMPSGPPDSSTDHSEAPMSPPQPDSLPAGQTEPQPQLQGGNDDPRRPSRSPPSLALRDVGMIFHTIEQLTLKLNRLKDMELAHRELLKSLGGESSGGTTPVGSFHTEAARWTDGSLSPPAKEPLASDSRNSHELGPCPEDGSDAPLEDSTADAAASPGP
Procedure, shortened: as §1

[3] = target: T3, PDZ protein (GST-PDZ fusion) (Homo sapiens, UniProt Q9HD26); settings: PDZ PIST, PDZ Domain 1
T3 construct: made in house; host or cells: E. coli (DH5alpha, BL21 or JM109)
Procedure, shortened: as §1

[4] = target: T4, PDZ protein (GST-PDZ fusion) (Homo sapiens, UniProt Q9NY99); settings: PDZ Syntrophin gamma-2, PDZ Domain 1
T4 construct: made in house; host or cells: E. coli (DH5alpha, BL21 or JM109)
T4 sequence (Q9NY99 1-539): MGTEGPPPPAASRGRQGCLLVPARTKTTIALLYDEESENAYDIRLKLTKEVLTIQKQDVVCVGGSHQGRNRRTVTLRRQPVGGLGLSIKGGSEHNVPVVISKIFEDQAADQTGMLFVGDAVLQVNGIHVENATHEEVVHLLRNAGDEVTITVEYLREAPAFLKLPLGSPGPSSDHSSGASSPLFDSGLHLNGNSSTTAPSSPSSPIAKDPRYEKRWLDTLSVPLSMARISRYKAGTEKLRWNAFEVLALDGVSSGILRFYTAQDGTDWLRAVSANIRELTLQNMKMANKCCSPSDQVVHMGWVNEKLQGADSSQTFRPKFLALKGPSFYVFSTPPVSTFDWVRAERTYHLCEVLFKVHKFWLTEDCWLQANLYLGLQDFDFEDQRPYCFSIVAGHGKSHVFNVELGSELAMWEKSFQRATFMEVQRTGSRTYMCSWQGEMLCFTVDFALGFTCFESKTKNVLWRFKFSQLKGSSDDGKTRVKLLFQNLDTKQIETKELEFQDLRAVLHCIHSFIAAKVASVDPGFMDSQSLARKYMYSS
Procedure, shortened: as §1

[5] = target: T5, PDZ protein (GST-PDZ fusion) (Homo sapiens, UniProt Q9Y3R0)
T5 construct: made in house; host or cells: E. coli (DH5alpha, BL21 or JM109)
T5 sequence (Q9Y3R0 1-1128): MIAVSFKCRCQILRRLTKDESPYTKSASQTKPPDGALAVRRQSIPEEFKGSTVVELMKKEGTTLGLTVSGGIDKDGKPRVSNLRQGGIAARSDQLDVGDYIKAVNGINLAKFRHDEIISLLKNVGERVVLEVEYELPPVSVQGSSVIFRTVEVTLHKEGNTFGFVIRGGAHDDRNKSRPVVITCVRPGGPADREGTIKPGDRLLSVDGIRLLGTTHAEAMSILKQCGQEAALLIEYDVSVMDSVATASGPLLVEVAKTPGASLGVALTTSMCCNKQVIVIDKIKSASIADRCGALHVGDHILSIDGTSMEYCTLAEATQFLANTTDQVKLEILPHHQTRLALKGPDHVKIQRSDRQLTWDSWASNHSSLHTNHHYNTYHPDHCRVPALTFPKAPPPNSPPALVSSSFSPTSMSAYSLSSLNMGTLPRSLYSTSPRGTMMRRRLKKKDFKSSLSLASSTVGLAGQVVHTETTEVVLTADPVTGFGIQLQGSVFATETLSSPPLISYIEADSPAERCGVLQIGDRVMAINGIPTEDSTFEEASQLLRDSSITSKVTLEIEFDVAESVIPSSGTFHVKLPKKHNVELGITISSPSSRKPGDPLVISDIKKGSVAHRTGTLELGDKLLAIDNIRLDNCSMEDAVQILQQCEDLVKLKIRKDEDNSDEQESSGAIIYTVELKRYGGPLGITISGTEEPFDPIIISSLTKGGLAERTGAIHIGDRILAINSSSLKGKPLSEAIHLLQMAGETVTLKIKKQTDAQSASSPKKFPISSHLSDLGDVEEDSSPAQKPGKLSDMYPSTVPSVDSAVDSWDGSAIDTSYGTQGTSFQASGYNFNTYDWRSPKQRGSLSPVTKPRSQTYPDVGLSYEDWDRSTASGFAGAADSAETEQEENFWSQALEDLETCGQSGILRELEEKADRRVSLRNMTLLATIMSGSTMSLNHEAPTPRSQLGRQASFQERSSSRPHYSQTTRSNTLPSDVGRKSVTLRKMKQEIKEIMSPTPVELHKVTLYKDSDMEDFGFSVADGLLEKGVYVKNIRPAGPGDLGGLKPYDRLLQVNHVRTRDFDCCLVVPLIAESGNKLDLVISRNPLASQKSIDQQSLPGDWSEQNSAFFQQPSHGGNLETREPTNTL
Procedure, shortened: as §1

## CSCC[C@H](NC(=O)[C@H](C)NC(=O)[C@H](CCCNC(=N)N)NC(=O)CNC(=O)[C@@H](NC(=O)[C@H](Cc1c[nH]c2ccccc12)NC(=O)[C@H](CCCNC(=N)N)NC(=O)CNC(=O)CCCC[C@@H]1SC[C@@H]2NC(=O)N[C@@H]21)[C@@H](C)O)C(=O)N[C@@H](CO)C(=O)N[C@@H](C)C(=O)N[C@@H](Cc1c[nH]c2ccccc12)C(=O)N[C@@H](CCCCN)C(=O)N1CCC[C@H]1C(=O)N[C@H](C(=O)N[C@@H](CCCNC(=N)N)C(=O)N[C@@H](CCCNC(=N)N)C(=O)N[C@@H](CCC(=O)O)C(=O)N[C@H](C(=O)N[C@@H](CCC(=O)O)C(=O)N[C@H](C(=O)O)C(C)C)[C@@H](C)O)[C@@H](C)O [HPV E6 #35 (modified)] (Biotin-GRWTGRAMSAWKPTRRETEV-OH; C-terminus assumed)
[1]
  Classification: 1 (A450 nm 0-1)
[2]
  Classification: 3 (A450 nm 2-3)
[3]
  Classification: 1 (A450 nm 0-1)
[4]
  Classification: 3 (A450 nm 2-3)
[5]; PDZ GRIP1, PDZ Domain 3
  Classification: 2 (A450 nm 1-2)
[5]; PDZ GRIP1, PDZ Domain 6
  Classification: 2 (A450 nm 1-2)
